Data as given in US9296745B2, “Diacylglycerol acyltransferase 2 inhibitors” (Pfizer Inc., priority 2012, dated 2016).
Read-outs that look alike come from different tables or passages of the source.

Columns and labels:
Human DGAT2 (hDGAT2) = Human DGAT2 (hDGAT2) (Homo sapiens (Human), UniProt Q96PD7); assay: In vitro DGAT2 assay, IC50 determination with hDGAT2 membrane fraction; format: biochemical; conditions: geometric mean
How it was run: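 CHAPS-solubilized membrane fraction of FLAG-tagged hDGAT2 from baculovirus-infected SF9 cells (0.01 mg/mL) in 100 mM Hepes-NaOH pH 7.4, 20 mM MgCl2, 200 nM methyl arachidonyl fluorophosphonate; compounds pre-incubated 20 min with 0.04% BSA. Reaction 40 min at room temperature, stopped with H3PO4. [^14C]tridecanoylglycerol in organic phase counted; 11-point geometric mean IC50.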

DGAT2 = DGAT2 (Homo sapiens (Human), UniProt Q96PD7); assay: IC50 determination for DGAT2 inhibitors in human hepatocytes ([1,3-14C]-glycerol incorporation into lipids); format: cell-based; conditions: average IC50; cryopreserved human hepatocytes, selective DGAT1 inhibitor (3 μM) in all wells, 3 hour incubation with [1,3-14C]-glycerol; read-out: IC50 (nM) in primary human hepatocyte
Sequence of DGAT2 (Q96PD7 whole entry): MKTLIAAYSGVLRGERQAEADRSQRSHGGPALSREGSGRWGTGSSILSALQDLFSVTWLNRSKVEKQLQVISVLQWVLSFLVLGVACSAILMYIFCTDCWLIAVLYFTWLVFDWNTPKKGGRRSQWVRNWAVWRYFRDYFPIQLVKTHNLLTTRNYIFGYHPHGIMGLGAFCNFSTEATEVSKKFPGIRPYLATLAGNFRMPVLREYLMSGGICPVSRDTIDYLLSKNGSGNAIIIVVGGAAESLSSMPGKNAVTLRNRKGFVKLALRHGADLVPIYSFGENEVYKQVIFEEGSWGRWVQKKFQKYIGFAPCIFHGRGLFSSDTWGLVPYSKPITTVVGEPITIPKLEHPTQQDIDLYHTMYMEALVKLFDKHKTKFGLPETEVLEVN
Experimental: For evaluation of the effects of DGAT2 inhibitors in a cell-based setting, cryopreserved human hepatocytes (Lot QOC, Celsis, Chicago, Ill.) were thawed and plated onto type I collagen-coated plates according to the manufacturer's instructions. After 24 hours overnight recovery period, the cells were overlayed with media containing 250 μg/ml Matrigel (BD Biosciences, San Jose, Calif.). The following day, media was aspirated and replaced with serum-free Williams Media E (Life Technologies, Grand Island, N.Y.) containing 400 μM sodium dodecanoate (Sigma-Aldrich, St. Louis, Mo.). Forty minutes later, DGAT2 inhibitors (prepared as 100× stocks in 25% DMSO, 75% Williams' Media E) were added to the desired final concentration. […] After a 20 minute preincubation, 0.2 μCi [1,3-^14C]-glycerol (American Radio Chemicals, St. Louis, Mo.) was added to each well and mixed by gentle pipetting prior to a 3 hour incubation. At this point, media was aspirated and the cells were lysed in isopropyl alcohol:tetrahydrofuran (9:1) prior to centrifugation at 3000 rpm for 5 minutes. Radiolabeled lipids were resolved using a 2-solvent system by thin layer chromatography using standard technique (solvent 1 contained ethyl acetate: isopropyl alcohol: chloroform:methanol:0.25% potassium chloride in water (100:100:100:40.2:36.1, v/v/v/v) and solvent 2 contained hexane: diethyl ether: acetic acid (70:27:3, v/v/v)). After separation, radiolabeled lipids were visualized using a Molecular Dynamics' PhosphorImager system. The half maximal inhibitory concentrations (IC50 values) were determined using Graph Pad Prism (GraphPad Software, Inc., La Jolla, Calif.).

[1] = background for complete inhibition of DGAT2 obtained with 50 μM (1R,2R)-2-({3′-Fluoro-4′-[(6-fluoro-1,3-benzothiazol-2-yl)amino]-1,1′-biphenyl-4-yl}carbonyl)cyclopentanecarboxylic acid, read-out: DGAT2 IC50
[2] = background for complete inhibition of DGAT2 obtained with Example 196-A instead of the cyclopentanecarboxylic acid reference, read-out: DGAT2 IC50 (nM), values in the parentheses

Sequence of Human DGAT2 (hDGAT2) (Q96PD7 whole entry): as above

| Structure (SMILES) | IC50 (Human DGAT2 (hDGAT2); [1]) [nM] | IC50 (DGAT2) [nM] | IC50 (Human DGAT2 (hDGAT2); [2]) [nM] |
| --- | --- | --- | --- |
| C[C@@H](c1nc2cnc(N3CCC[C@@H](C(=O)N4CCCC4)C3)nc2[nH]1)n1cc(Cl)cn1 [Example 198, ((R)-1-(8-((S)-1-(4-Chloro-1H-pyrazol-1-yl)ethyl)-9H-purin-2-yl)piperidin-3-yl)(pyrrolidin-1-yl)methanone] | 43 | 7.8 | – |
| C[C@H](c1nc2ccc(N3CCC[C@@H](C(=O)N4CCCC4)C3)nc2[nH]1)n1cc(Cl)cn1 [Example 197, ((R)-1-(2-((R)-1-(4-chloro-1H-pyrazol-1-yl)ethyl)-3H-imidazo[4,5-b]pyridin-5-yl)piperidin-3-yl)(pyrrolidin-1-yl)methanone] | 33.7 | 5.5 | – |
| O=C([C@@H]1CCCN(c2ccc3nc(C4(n5cc(F)cn5)CC4)[nH]c3n2)C1)N1CCCC1 [Example 73, (R)-(1-(2-(1-(4-Fluoro-1H-pyrazol-1-yl)cyclopropyl)-3H-imidazo[4,5-b]pyridin-5-yl)piperidin-3-yl)(pyrrolidin-1-yl)methanone] | 96.9 | 7.9 | 85 |
| O=C([C@H]1CN(c2ccc3nc(C4(n5cc(Cl)cn5)CC4)[nH]c3n2)CCO1)N1CCCC1 [Example 141, (R)-(4-(2-(1-(4-Chloro-1H-pyrazol-1-yl)cyclopropyl)-3H-imidazo[4,5-b]pyridin-5-yl)morpholin-2-yl)(pyrrolidin-1-yl)methanone] | 354 | 10.7 | 301 |
| O=C([C@H]1CN(c2ccc3nc(-c4cccc(C(F)F)n4)[nH]c3n2)CCO1)N1CCCC1 [Example 175, (R)-(4-(2-(6-(Difluoromethyl)pyridin-2-yl)-3H-imidazo[4,5-b]pyridin-5-yl)morpholin-2-yl)(pyrrolidin-1-yl)methanone] | 91.3 | 71.7 | – |
| O=C([C@@H]1CCCN(c2ccc3nc(C4(c5ccccn5)CC4)[nH]c3n2)C1)N1CCCC1 [Example 82, (R)-(1-(2-(1-(Pyridin-2-yl)cyclopropyl)-3H-imidazo[4,5-b]pyridin-5-yl)piperidin-3-yl)(pyrrolidin-1-yl)methanone] | 165 | 15.8 | – |
| O=C([C@@H]1CCCN(c2ccc3nc(C4(c5cccnc5)CC4)[nH]c3n2)C1)N1CCCC1 [Example 81, (R)-(1-(2-(1-(Pyridin-3-yl)cyclopropyl-1)-3H-imidazo[4,5-b]pyridin-5-yl)piperidin-3-yl)(pyrrolidin-1-yl)methanone] | 204 | 47.7 | – |
| O=C([C@@H]1CCCN(c2ncc3nc(C4(n5cc(F)cn5)CC4)[nH]c3n2)C1)N1CCCC1 [Example 209, (R)-(1-(8-(1-(4-Fluoro-1H-pyrazol-1-yl)cyclopropyl)-9H-purin-2-yl)piperidin-3-yl)(pyrrolidin-1-yl)methanone] | 101 | 8.9 | – |
| N#Cc1cnn(C2(c3nc4ccc(N5CCC[C@@H](C(=O)N6CCCC6)C5)nc4[nH]3)CC2)c1 [Example 76, (R)-1-(1-(5-(3-(Pyrrolidine-1-carbonyl)piperidin-1-yl)-3H-imidazo[4,5-b]pyridin-2-yl)cyclopropyl)-1H-pyrazole-4-carbonitrile] | 227 | 25.1 | – |
| C[C@H](c1nc2cnc(N3CCC[C@@H](C(=O)N4CCCC4)C3)nc2[nH]1)n1cc(Cl)cn1 [Example 199, ((R)-1-(8-((R)-1-(4-chloro-1H-pyrazol-1-yl)ethyl)-9H-purin-2-yl)piperidin-3-yl)(pyrrolidin-1-yl)methanone] | 18.9 | 2.5 | 32.9 |
| CC(c1nc2ccc(N3CCC[C@@H](C(=O)N4CCCC4)C3)nc2[nH]1)n1cccn1 (stereo partly drawn) [Example 58, (R)-(1-(2-(1-(1H-Pyrazol-1-yl)ethyl)-3H-imidazo[4,5-b]pyridin-5-yl)piperidin-3-yl)(pyrrolidin-1-yl)methanone] | 363 | 86.8 | – |
| C[C@@H](c1nc2ccc(N3CCC[C@@H](C(=O)N4CCCC4)C3)nc2[nH]1)n1cc(Cl)cn1 [Example 196-A, ((R)-1-(2-((S)-1-(4-Chloro-1H-pyrazol-1-yl)ethyl)-3H-imidazo[4,5-b]pyridin-5-yl)piperidin-3-yl)(pyrrolidin-1-yl)methanone] | 14.5 | 4.6 | 20.6 |
| O=C([C@@H]1CCCN(c2ccc3nc(C4(n5cc(C(F)(F)F)cn5)CC4)[nH]c3n2)C1)N1CCCC1 [Example 78, (R)-Pyrrolidin-1-yl(1-(2-(1-(4-(trifluoromethyl)-1H-pyrazoL-1-yl)cyclopropyl)-3H-imidazo[4,5-b]pyridin-5-yl)piperidin-3-yl)methanone] | 83.8 | 9.4 | – |
| O=C([C@@H]1CCCN(c2ncc3nc(C4(n5cc(Cl)cn5)CC4)[nH]c3n2)C1)N1CCCC1 [Example 108, (R)-(1-(8-(1-(4-Chloro-1H-pyrazol-1-yl)cyclopropyl)-9H-purin-2-yl)piperidin-3-yl)(pyrrolidin-1-yl)methanone] | 28.7 | 2.8 | 26.2 |
| O=C([C@@H]1CCCN(c2ccc3nc(-c4ccnc(C5CC5)n4)[nH]c3n2)C1)N1CCCC1 [Example 95, (R)-(1-(2-(2-Cyclopropylpyrimidin-4-yl)-3H-imidazo[4,5-b]pyridin-5-yl)piperidin-3-yl)(pyrrolidin-1-yl)methanone] | 18.2 | 15.9 | – |
